# From US9771343B2, “2-alkyl-or-aryl-substituted tanshinone derivatives, and preparation method and application thereof” (Hangzhou Bensheng Pharmaceutical Co., Ltd., priority 2011, dated 2017)
# Key:
# [1] = system: RPMI8226 (multiple myeloma); experiment: MTT cell growth inhibition, RPMI8226 multiple myeloma cells, 72 h; type: cell-based, human; conditions: RPMI 8226, 72 h
# Experimental: (§1) The standard sample of tanshinone I (TA) and the 2-alkyl- or 2-aromatic-substituted tanshinone I derivatives of the present invention are sufficiently dissolved in dimethylsulfoxide to produce a stock solution of 10 mg/mL, which is refrigerated at 4° C. and stored in dark, and is diluted with cell culture medium to a desired concentration prior to experimentation.
# (§2) Obtaining 6000 well-growing leukemia cells and inoculating them into wells of a 96-well cell culture plate. The culture medium is the RPMI-1640 cell culture medium containing 10% fetal bovine serum. After adding on the second day the 2-alkyl- or 2-aromatic-substituted tanshinone I derivatives of different concentrations and mixing uniformly, placing the plate in a carbon dioxide cell incubator (5% CO2) at 37° C. and incubated for 72 hours. Then the viable cell concentration is determined by MTT method. In this experiment, the cell viability in control group (not treated with any compound) is set as 100%, and the cell viability (%) after treatment by the compounds and the half maximum inhibitory concentration for the leukemia cell at 72 hours (IC50 value of 72 hours, μg/mL) are calculated.
# [2] = system: MG63 (osteosarcoma); experiment: MTT cell growth inhibition, MG63 cells, 72 h; type: cell-based, human; conditions: MG-63, 72 h
# Experimental: (§3) The standard sample of tanshinone I (TA) and the 2-alkyl- or 2-aromatic-substituted tanshinone I derivatives of the present invention are sufficiently dissolved in dimethylsulfoxide to produce a stock solution of 10 mg/mL, which is refrigerated at 4° C. and stored in dark, and is diluted with a cell culture medium to the desired concentration prior to experimentation.
# (§4) Obtaining 6000 well-growing human solid tumor cells and inoculating them into wells of a 96-well cell culture plate. The culture medium is DMEM High Glucose cell culture medium containing 10% fetal bovine serum. The plate is placed in a carbon dioxide cell incubator (5% CO2) at 37° C. and incubated for 24 hours. After adding the 2-alkyl- or 2-aromatic-substituted tanshinone I derivatives of different concentrations and mixing uniformly, the plate is placed in a carbon dioxide cell incubator (5% CO2) at 37° C. and incubated for 72 hours. Then the viable cell concentration is determined by MTT method. In this experiment, the cell viability in control group (not treated with any compound) is set as 100%, and the cell viability (%) after treatment by the compounds and the half maximum inhibitory concentration for the leukemia cell at 72 hours (IC50 value of 72 hours, μg/mL) are calculated.
# [3] = system: tumor-bearing nude mice; conditions: literature report; cited from earlier work
# [4] = background statement; cited from earlier work
# [5] = system: Hep G2 cells; conditions: in vitro, literature report; cited from earlier work
# [6] = system: Hep-2 (laryngeal carcinoma); experiment: MTT cell growth inhibition, Hep-2 cells, 72 h; type: cell-based, human; conditions: Hep-2, 72 h
# Experimental: as §3, §4
# [7] = system: RKO (human colon adenocarcinoma cell); experiment: MTT cell growth inhibition, RKO cells, 72 h; type: cell-based; conditions: RKO, 72 h
# Experimental: as §3, §4
# [8] = system: SGC-7901 human gastric adenocarcinoma cells; conditions: concentration dependent within a certain range, literature report; cited from earlier work
# [9] = system: K562/adr (drug-resistant, chronic myeloid leukemia, CML); experiment: MTT cell growth inhibition, K562/adr leukemia cells, 72 h; type: cell-based; conditions: K562/ADR
# Experimental: as §1, §2
# [10] = system: Jurkat (acute lymphoblastic leukemia, ALL); experiment: MTT cell growth inhibition, Jurkat leukemia cells, 72 h; type: cell-based; conditions: 72 h
# Experimental: as §1, §2
# [11] = system: H9 (acute lymphoblastic leukemia, ALL); experiment: MTT cell growth inhibition, H9 leukemia cells, 72 h; type: cell-based; conditions: H9, 72 h
# Experimental: as §1, §2
# [12] = system: Hela (human cervical cancer cell); experiment: MTT cell growth inhibition, Hela cells, 72 h; type: cell-based; conditions: Hela, 72 h
# Experimental: as §3, §4
# [13] = system: SK-OV-3 (ovarian cancer cell); experiment: MTT cell growth inhibition, SK-OV-3 cells, 72 h; type: cell-based, human; conditions: SK-OV-3, 72 h
# Experimental: as §3, §4
# [14] = system: Becap37 (human breast cancer cell); experiment: MTT cell growth inhibition, Becap37 cells, 72 h; type: cell-based; conditions: Becap-37, 72 h
# Experimental: as §3, §4
# [15] = system: Hep G2 (human liver cancer cell); experiment: MTT cell growth inhibition, Hep G2 cells, 72 h; type: cell-based; conditions: Hep G2, 72 h
# Experimental: as §3, §4
# [16] = system: MGC 803 (human gastric cancer cell); experiment: MTT cell growth inhibition, MGC 803 cells, 72 h; type: cell-based; conditions: MGC-803, 72 h
# Experimental: as §3, §4
# [17] = system: PANC-1 (pancreatic cancer); experiment: MTT cell growth inhibition, PANC-1 cells, 72 h; type: cell-based, human; conditions: PANC-1, 72 h
# Experimental: as §3, §4
# [18] = system: CNE (nasopharyngeal carcinoma cell); experiment: MTT cell growth inhibition, CNE cells, 72 h; type: cell-based, human; conditions: CNE, 72 h
# Experimental: as §3, §4
# [19] = system: CaES-17 (esophageal cancer cell); experiment: MTT cell growth inhibition, CaES-17 cells, 72 h; type: cell-based, human; conditions: CaEs-17, 72 h
# Experimental: as §3, §4
# [20] = system: PC-3 (prostate cancer); experiment: MTT cell growth inhibition, PC-3 cells, 72 h; type: cell-based, human; conditions: PC-3, 72 h
# Experimental: as §3, §4
# [21] = background statement; cited from earlier work; remark: listed apart in the source
# [22] = system: NB4 (acute promyelocytic leukemia, AML); experiment: MTT cell growth inhibition, NB4 leukemia cells, 72 h; type: cell-based; conditions: NB4, 72 h
# Experimental: as §1, §2
# [23] = system: Kasumi-1 (acute myeloid leukemia M2 type, AML-M2); experiment: MTT cell growth inhibition, Kasumi-1 leukemia cells, 72 h; type: cell-based; conditions: Kasumi-1, 72 h
# Experimental: as §1, §2
# [24] = system: A549 (human lung cancer); experiment: MTT cell growth inhibition, A549 cells, 72 h; type: cell-based; conditions: A549, 72 h
# Experimental: as §3, §4
# [25] = system: U87 MG (malignant glioma cell); experiment: MTT cell growth inhibition, U87 MG cells, 72 h; type: cell-based, human; conditions: U87-MG, 72 h
# Experimental: as §3, §4
smiles,measurement,setting,value
"Cc1coc2c1C(=O)C(=O)c1c-2ccc2c(C)cccc12 [TA, 1,6-dimethyl-phenanthreno [1,2-b]furan-10,11-diketone, reference compound]",IC50,[1],0.96 µg/mL
same,IC90,[1],10.86 µg/mL
same,IC50,[2],0.96 µg/mL
same,IC90,[2],>16 µg/mL
same,effect on tumor growth in tumor-bearing nude mice,[3],can inhibit the tumor growth in the mice
same,solubility in water,[4],poor solubility in water
same,effect on proliferation of Hep G2 cells,[5],can inhibit the proliferation of Hep G2 cells
same,IC50,[6],3.15 µg/mL
same,IC90,[6],>16 µg/mL
same,IC50,[7],1.83 µg/mL
same,IC90,[7],>16 µg/mL
same,effect on growth of SGC-7901 cells cultured in vitro,[8],significant inhibitory effect
same,IC50,[9],0.88 µg/mL
same,IC90,[9],4.17 µg/mL
same,IC50,[10],1.74 µg/mL
same,IC90,[10],8.42 µg/mL
same,IC50,[11],3.5 µg/mL
same,IC90,[11],13.06 µg/mL
same,IC50,[12],4 µg/mL
same,IC90,[12],>16 µg/mL
same,IC50,[13],>16 µg/mL
same,IC90,[13],>16 µg/mL
same,IC50,[14],3.03 µg/mL
same,IC90,[14],>16 µg/mL
same,IC50,[15],2.19 µg/mL
same,IC90,[15],22.13 µg/mL
same,IC50,[16],1.62 µg/mL
same,IC90,[16],9.26 µg/mL
same,IC50,[17],2.7 µg/mL
same,IC90,[17],>16 µg/mL
same,IC50,[18],7.4 µg/mL
same,IC90,[18],>16 µg/mL
same,IC50,[19],3.18 µg/mL
same,IC90,[19],16.00 µg/mL
same,IC50,[20],6.63 µg/mL
same,IC90,[20],10.57 µg/mL
same,in vivo bioavailability,[21],low in vivo bioavailability
same,IC50,[22],0.98 µg/mL
same,IC90,[22],2.5 µg/mL
same,IC50,[23],0.99 µg/mL
same,IC90,[23],3.62 µg/mL
same,IC50,[24],4.03 µg/mL
same,IC90,[24],17.29 µg/mL
same,IC50,[25],6.36 µg/mL
same,IC90,[25],14.63 µg/mL
